These are literature values, as cited in patent US20110150817A1, “FRESHENING COMPOSITIONS COMPRISING MALODOR BINDING POLYMERS AND MALODOR CONTROL COMPONENTS” (priority 2009, published 2011).

The conditions of the data set: acid catalysts, as reported by Scifinder; cited from earlier work.
Take `O=C(O)c1ccccc1` [Benzoic acid]: the “VP (torr) @25° C.” value was 0.014 torr.
In the case of `C/C=C(\C)C(=O)O` [Tiglic acid], the “VP (torr) @25° C.” value is 0.152 torr.
Turning to `CC(=O)O` [Acetic Acid], the “VP (torr) @25° C.” value is given as 13.9 torr.
Turning to `Cc1cc(C)cc(C(=O)O)c1` [Mesitylenic acid], the “VP (torr) @25° C.” value was 0.00211 torr.
As for `Oc1ccccc1` [Phenol], the “VP (torr) @25° C.” value is listed as 0.610 torr.
Consider `CC(C)(C)C(=O)O` [Trimethyl Acetic Acid], for which the “VP (torr) @25° C.” value was 0.907 torr.
In the case of `O=CO` [Formic Acid], the “VP (torr) @25° C.” value is 36.5 torr.
As for `Cc1ccc(C(=O)O)s1` [5-Methyl thiophene carboxylic acid], the “VP (torr) @25° C.” value is 0.019 torr.
Turning to `CCCCCCCC(=O)O` [Caprylic acid], the “VP (torr) @25° C.” value is on record as 0.0222 torr.
